Assays:
C57B1/6J mice = experiment: Running performance, body composition and muscle weight of high-fat-diet mice supplemented for 9 weeks; assay type: in vivo, mouse
Method: 20 male C57B1/6J mice were obtained from Jackson Laboratory (Bar Harbor, Me., USA) at the age of 5 weeks. All mice were administered a high-fat diet (Kliba#2154, Provimi Kliba AG, Kaiseraugst, Switzerland) for 8 weeks to induce obesity. Thereafter, the mice were randomly assigned into two groups:
The duration of the supplementation was 9 weeks. During this period all mice received food and water ad libitum. At the end of the supplementation period, maximal running performance on a rodent treadmill (Technical & Scientific Equipment GmbH, Bad Homburg, Germany) was determined. Body composition was measured by quantitative magnetic resonance (Minispec MQ10, Bruker Optics GmbH, Faellanden, Switzerland) in conscious animals. At the end of the study, the animals were killed, blood was taken and the gastrocnemius-plantaris-soleus muscle group was excised and weighted.

mCD36 = experiment: Gene expression in C2C12 muscle cells (TaqMan RT-PCR): mCD36; assay type: cell-based, mouse; conditions: for mCD36 fold of induction compared to DMSO control: C2C12 cells, 24 h incubation, mRNA; for Effect on CD36 expression (in words): muscle cells
Method: (§1) C2C12 subclone cells were obtained from Dr. Grimaldi, University of Nice, France. C2C12PPd cells were seeded in 24-well-plates with 0.1×106 to 0.15×106 and kept at 37° C. in maintenance medium (DMEM #41965 adjusted to 10% FBS, 2 mM L-Glutamine, 1 mM sodium pyruvate, 100 IU/ml penicillin and 100 μg/ml streptomycin). At 90-95% confluency, cells were washed with 1×PBS and changed to differentiation medium (DMEM #41965 adjusted to 3% FBS, 2 mM Glutamine and 1 mM sodium pyruvate). After 4 days of differentiation, cells were washed with 1×PBS and treated in treatment medium (DMEM #41965 adjusted to 2% BSA, 2 mM Glutamine and 100 IU/ml penicillin and 100 μg/ml streptomycin) with the test compounds. DMSO contents were adjusted to 0.5% final concentration.
(§2) After 24 h incubation with tested compounds, cells were washed with 1×PBS, harvested with 300 μl RLT buffer (Qiagen RNeasy Mini Kit #74106) in QIAshredder (Qiagen 79656) and stored at −20° C.
(§3) Total RNA was extracted using the Qiagen RNeasy Mini Kit, including an in column DNase step (Qiagen #79254) according to the manufacture's protocol. RNA concentration was determined using RiboGreen® RNA quantification assay (Molecular Probes #R11490, Eugene, USA) according to the manufacturer's protocol. 200 ng of the total RNA were subject to first strand cDNA synthesis by reverse transcription using the Omniscript™ RT-kit (Qiagen #205113, Basel, CH) with 10 μM Random Primers (Promega #C1181) according to the manufacturer's instructions. The final volume was adjusted to 400 μl with DEPC-treated water (Ambion, Austin, Tex., USA) and stored at −20° C.
(§4) Quantitative real-time TaqMan RT-PCR, based on the multiplex method, was used to quantify the expression levels of selected genes. In the quantitative TaqMan RT-PCR, 5 μl of the diluted cDNA was added to 20 μl of the reaction mixture, consisting of 12.5 μl TaqMan 2× Master Mix (PE biosystems, Rotkreuz, CH), 300 nM PCR primers (forward and reverse), and 100 nM TaqMan probe for the gene of interest. The reference gene used was 18S rRNA, with primers and probes at 50 nM and 100 nM, respectively. Probes for the gene of interest were labeled with FAM on the 5′ end and with Tamra on the 3′ end. The 18S rRNA probe was labeled with VIC on the 5′ end and with Tamra on the 3′ end. Amplification was performed using an Abi-Prism 7700 Sequence Detector (PE Biosystems, Foster City, Calif., USA) in MicroAmp Optical 96-well reaction plates (PE Biosystems, Foster City, Calif., USA). The PCR amplification program consisted of 2 min at 50° C., 10 min at 95° C., and 40 cycles of 15 sec at 95° C. and 60 sec at 60° C. Threshold CT values were set at 0.05. The baseline start and stop values for the gene of interest were set at 3 and 15, respectively, and for the reference gene (18S rRNA) at 3 and 7, respectively. mRNA abundance was determined using the ΔCT method according to the manufacturer's protocol. Briefly, the ΔCT for the gene of interest was determined as the difference between the CT values for the reference gene and the gene of interest. Then, ΔΔCT was determined as the difference in dCT between the untreated control group and each of the treated groups. The fold induction for the gene of interest (i.e. the amount of mRNA for the gene of interest, normalized to an endogenous reference and relative to a calibrator) was determined as 2-ΔΔCT In graphs data is presented as a percentage.
(§5) Genes in involved in fatty acid β-oxidation and lipid metabolism were checked using real-time RT-PCR.

mUCP2 = experiment: Gene expression in C2C12 muscle cells (TaqMan RT-PCR): mUCP2; assay type: cell-based, mouse; conditions: 24 h incubation, mRNA
Method: as §1, §2, §3, §4, §5

mCPT1b = experiment: Gene expression in C2C12 muscle cells (TaqMan RT-PCR): mCPT1b; assay type: cell-based, mouse; conditions: for mCPT1b fold of induction compared to DMSO control: C2C12 cells, 24 h incubation, mRNA; for Effect on CPT1b expression (in words): muscle cells
Method: as §1, §2, §3, §4, §5

mACO1 = experiment: Gene expression in C2C12 muscle cells (TaqMan RT-PCR): mACO1; assay type: cell-based, mouse; conditions: 24 h incubation, mRNA
Method: as §1, §2, §3, §4, §5

mLPL = experiment: Gene expression in C2C12 muscle cells (TaqMan RT-PCR): mLPL; assay type: cell-based, mouse; conditions: for mLPL fold of induction compared to DMSO control: C2C12 cells, 24 h incubation, mRNA; for Effect on LPL expression (in words): muscle cells
Method: as §1, §2, §3, §4, §5

mFABP3 = experiment: Gene expression in C2C12 muscle cells (TaqMan RT-PCR): mFABP3; assay type: cell-based, mouse; conditions: for mFABP3 fold of induction compared to DMSO control: C2C12 cells, 24 h incubation, mRNA; for Effect on FABP3 expression (in words): muscle cells
Method: as §1, §2, §3, §4, §5

mUCP3 = experiment: Gene expression in C2C12 muscle cells (TaqMan RT-PCR): mUCP3; assay type: cell-based, mouse; conditions: for mUCP3 fold of induction compared to DMSO control: C2C12 cells, 24 h incubation, mRNA; for Effect on UCP3 expression (in words): muscle cells
Method: as §1, §2, §3, §4, §5

[1] = compared to mice in the control group
[2] = mice, high-fat diet supplemented with 0.03% w/w, 9 weeks
[3] = mice, high-fat diet supplemented with 0.03% w/w, 9 weeks, quantitative magnetic resonance

Compound	mCD36 fold of induction compared to DMSO control (mCD36) [fold]	mUCP2 fold of induction compared to DMSO control (mUCP2) [fold]	mCPT1b fold of induction compared to DMSO control (mCPT1b) [fold]	mACO1 fold of induction compared to DMSO control (mACO1) [fold]	mLPL fold of induction compared to DMSO control (mLPL) [fold]	mFABP3 fold of induction compared to DMSO control (mFABP3) [fold]	Effect on CD36 expression (in words) (mCD36)	Effect on CPT1b expression (in words) (mCPT1b)	mUCP3 fold of induction compared to DMSO control (mUCP3) [fold]	Effect on UCP3 expression (in words) (mUCP3)	Effect on LPL expression (in words) (mLPL)	Effect on FABP3 expression (in words) (mFABP3)	other results
COc1ccc(-c2coc3cc(OC)ccc3c2=O)cc1 [4′,7-Dimethoxyisoflavone, 4′,7-dimethoxyisoflavone]													Increase of maximal running distance (C57B1/6J mice; compared to control group, treadmill): 6%; Effect on body weight (in words) (C57B1/6J mice; [1]): decreased; Effect on gastrocnemius-plantaris-soleus weight relative to body weight (in words) (C57B1/6J mice; [1]): increased; Effect on percentage of body fat mass (in words) (C57B1/6J mice; [1]): decreased; Effect on percentage of lean body mass (in words) (C57B1/6J mice; [1]): increased; Body weight (C57B1/6J mice; [2]): 30.5 g; Gastrocnemius-plantaris-soleus weight (C57B1/6J mice; [2]): 6.74 mg/g body weight; Body fat mass (C57B1/6J mice; [3]): 15.6 % of body weight; Lean body mass (C57B1/6J mice; [3]): 75.0 % of body weight; Maximal running distance (C57B1/6J mice; mice, high-fat diet supplemented with 0.03% w/w, 9 weeks, rodent treadmill): 2201 m
O=C(C=Cc1ccc(O)c(O)c1)NC(=O)c1ccccc1O [Compound 1, N-[3-(3,4-dihydroxyphenyl)-1-oxo-2-propenyl]-2-hydroxybenzamide]	2.93	2.46	1.33	1.98	1.11	1.35							
COc1cc(C=CC(=O)NC(=O)c2ccccc2O)cc(OC)c1OC [Compound 2]	3.2	3.27	1.05	1.81	1.91	1.63							
COc1ccc(C=CC(=O)c2cc(OC)ccc2OC)c(OC)c1 [Compound 3, 3-(2,4-dimethoxyphenyl)-1-(2,5-dimethoxyphenyl)-2-propen-1-one]	10.16	4.25	3.64	1.54	3.5	4.76	most remarkable effect	induced	4.73	increased UCP3 expression	increased moderately	most remarkable effect	
COc1ccc(C(=O)/C=C/c2c(CCN(C)C(C)=O)cc3c(c2OC)OCO3)cc1 [Compound 4]	15.56	7.55	5.08	1.74	3.31	6.29	most remarkable effect	induced	5.95	increased UCP3 expression	increased moderately	most remarkable effect	
COc1ccc(C(=O)C=Cc2cccc(OC(=O)C=Cc3ccccc3)c2)cc1 [Compound 5, 3-phenyl-2-propenoic acid 3-[3-(4-methoxyphenyl)-3-oxo-1-propenyl]phenyl ester]	1.91	2.33	4.19	1.03	1.84	1.88		induced					
COc1ccc(C(=O)C=Cc2ccc(OC)c(OC)c2)cc1 [Compound 6, 3-(3,4-dimethoxyphenyl)-1-(4-methoxyphenyl)-2-propen-1-one]	22.66	6.1	1.62	1.09	2.44	5.02	most remarkable effect		1.92	increased UCP3 expression	increased moderately	most remarkable effect	
COc1ccc(C=C2Oc3cc(O)ccc3C2=O)cc1 [Compound 7]	2.95	2.33	1.12	1.03	1.06	2.16							
COc1ccc(C(=O)C=Cc2ccc(OC)cc2OC)cc1 [Compound 8, 3-(2,4-dimethoxyphenyl)-1-(4-methoxyphenyl)-2-propen-1-one]	9.49	4.68	1.29	1.15	1.88	3.36							

Reference: patent publication US20100041746A1, “NOVEL USE OF ORGANIC COMPOUNDS” (priority 2006, published 2010)
